Series [1] relates to mouse bone marrow erythrocytes. The note with it: Positive Control 25 mg/Kg i.p.
The test system of series [2] is SARS-CoV-2. Briefly: Combination of RdRp inhibitors with SARS-CoV-2 nsp14 inhibitors in infected Calu-3 cells, synergy. Type of series: cell-based. On the set-up: EC99 mean: unit not given here. Particulars: for Response (Fig3C source data for synergy analysis): MB-905 0 nM; for EC50: Severe acute respiratory syndrome coronavirus 2, Calu-3, read-out: EC50 mean.
The conditions of series [3]: human, in vivo; cited from earlier work.
The test system of series [4] is SARS-CoV-2. As to the kind of experiment: Cell-associated virus RNA in SARS-CoV-2-infected human primary monocytes. The note with it: for Cell-associated virus RNA levels in SARS-CoV-2-infected monocytes: Fig. 1c; for Cell-associated virus RNA loads, inhibition (Fig1C source data, per donor): monocytes. Type of series: cell-based. As to the method:
(§1) Human primary monocytes were obtained after 3 h of plastic adherence of peripheral blood mononuclear cells (PBMCs). The use of primary human cell was approved by Institutional Review Board from the Oswaldo Cruz Foundation under protocol 49971421.8.0000.5248 with signed informed consent in accordance with the Hemotherapy Service of Hospital Clementino Fraga from the Federal University of Rio de Janeiro. All volunteers were de-identified. PBMCs were isolated from healthy donors by density gradient centrifugation (Ficoll-Paque, GE Healthcare). PBMCs (2.0 × 10^6 cells) were plated onto 48-well plates (NalgeNunc) in RPMI-1640 without serum for 2–4 h. Nonadherent cells were removed, and the remaining monocytes were maintained in DMEM with 5% human serum (HS; Millipore) and penicillin/streptomycin. The purity of human monocytes was above 95%, as determined by flow cytometric analysis (FACScan; Becton Dickinson) using anti-CD3 (BD Biosciences, cat # 555342, 1:40), anti-CD16 (Southern Biotech, cat # 561313, 1:20) and APC mouse IgG2a isotype (BD Biosciences, cat # 550882, 1/40) and PE mouse IgG1 isotype (BD Biosciences, 555749, 1/20).
Total viral RNA from a culture supernatant and/or monolayers was extracted using QIAamp Viral RNA (Qiagen®) according to the manufacturer’s instructions. Quantitative RT‒PCR was performed using GoTaq® Probe qPCR and RT-qPCR Systems (Promega) in a StepOne™ Real-Time PCR System (Thermo Fisher Scientific) ABI PRISM 7500 Sequence Detection System (Applied Biosystems). Amplifications were carried out in 25 µL reaction mixtures containing 2× reaction mix buffer, […] of each primer, 10 µM of probe, and 5 µL of RNA template. Primers, probes, and cycling conditions recommended by the Centers for Disease Control and Prevention (CDC) protocol were used to detect SARS-CoV-2[52]. The standard curve method was employed for virus quantification. For reference to the cell amounts used, the housekeeping gene RNAse P (F-5′-[…] -3′, R-5′[…] -3′, P-5′-FAM-[…] -BHQ-1-3′) was amplified. The Ct values for this target were compared to those obtained for different cell amounts, 10^7 to 10^2, for calibration.

A further series concerns TNF-α. As to the kind of experiment: TNF-α in supernatant of SARS-CoV-2-infected human primary monocytes. Type of series: cell-based. Particulars: infected monocytes, drugs at 10 µM, 24 h. The procedure:
as §1

The test system of a further series is IL-6. As to the kind of experiment: IL-6 in supernatant of SARS-CoV-2-infected human primary monocytes. It is filed as cell-based. Particulars: infected monocytes, drugs at 10 µM, 24 h. The procedure:
as §1

For series [5], the system named is SARS-CoV-2. As to the kind of experiment: Genomic and subgenomic viral RNA in infected Calu-3 cells (RT-PCR). Particulars: Calu-3, 10 µM, 48 h. It is filed as cell-based.
The test system of a further series is Calu-3 cells. The note with it: human.
A short description of another series: in vitro. Particulars: human.
The test system of series [6] is SARS-CoV-2. As to the kind of experiment: Yield-reduction assay, SARS-CoV-2 in Calu-3 cells (titers as PFU/mL in Vero cells). The note with it: for Inhibition of SARS-CoV-2 infectious titers (Fig1B source data, replicates): additional treatment at 24 h; for Inhibition of SARS-CoV-2 infectious titers (Fig1A source data, replicates): one treatment.
The next series deals with Human primary monocytes. As to the kind of experiment: Monocyte viability (LDH in supernatant). The note with it: 10 µM. It is filed as cell-based. The source says: Cellular Viability (%) Remdesivir
Supplementary Fig. 3. Citotoxicity of the compounds.
DMEM containing 2% fetal bovine serum.
Monocytes at a density of 1.5

Where [7] appears, read: infected Calu-3, compound alone at 10 uM.
Setting [8] is: Severe acute respiratory syndrome coronavirus 2, Calu-3.
The mark [9] stands for this setting: Severe acute respiratory syndrome coronavirus 2, Calu-3, 24 h.
Setting [10] is: Drug 0.001, Calu-3, MOI 0.1, 48 h.

Several values for one entry are separate records, joined by “and”; a condition that tells them apart may be missing. Equal values may be shown once.

As a reminder, the EC50 is the midpoint of the concentration-response curve. The term Cmax denotes the peak of the concentration-time curve. The EC90 is the concentration needed for an effect of 90%.

Protocol for in vitro: Monolayers of 1.5 × 10^4 cells in 96-well plates were treated for 3 days with various concentrations (semilog dilutions from 1000 to 10 µM) of the antiviral drugs. Then, 5 mg/ml 2,3-bis-(2-methoxy-4-nitro-5-sulfophenyl)−2H-tetrazolium-5-carboxanilide (XTT) in DMEM was added to the cells in the presence of 0.01% N-methyl dibenzopyrazine methyl sulfate (PMS).

Consider `O=P1(N(CCCl)CCCl)NCCCO1` (stereo not shown) [Cyclophosphamide, reference compound], for which, in series [1], the “MNPCE/4,000 PCE (Mean ± S.D.)” value turned out to be 16.20 ± 6.03 and the “Ratio PCE/NCE (Mean ± S.D.)” value is recorded as 1.44 ± 0.29.
Consider `C[C@@H]1CCO[C@H]2Cn3cc(C(=O)NCc4ccc(F)cc4F)c(=O)c(O)c3C(=O)N12` [DTG, dolutegravir], for which the “Response (Fig3C source data for synergy analysis)” value with SARS-CoV-2 [2] (DTG 1000 nM) turned out to be 14; with SARS-CoV-2 [2] (DTG 5000 nM), 53; in the series with SARS-CoV-2 [2] (DTG 10000 nM) it was 74; in the series on SARS-CoV-2 [2] (DTG 15000 nM), 75. In addition, the half-maximal effective concentration (EC50) in the series on SARS-CoV-2 [2] is 5.3 µM. Further, the “Effects on SARS-CoV-2 replication” value with SARS-CoV-2 [2] (alone at 5 µM, Calu-3) was “marginal effects”. Besides, the “Virus productive titers (Fig3B source data, replicates)” value with SARS-CoV-2 [2] (infected Calu-3, DTG alone at 5uM) was 224000 and 448000. For the same compound, in [3], the maximum concentration (Cmax) is 15 µM. Moreover, the “Plasma concentration at Cmin” value in series [3] was 1.5 µM.
`OC[C@H]1O[C@@H](n2cnc3c(NCc4ccco4)ncnc32)[C@H](O)[C@@H]1O` [MB-801, Kinetin riboside]: the “Cell-associated virus RNA levels in SARS-CoV-2-infected monocytes” value with SARS-CoV-2 [4] is on record as “reduced cell-associated virus RNA levels in a concentration-dependent manner”. In addition, the “Cell-associated virus RNA loads, inhibition (Fig1C source data, per donor)” value is 36 and 65 and 10 and 20 and 30 and 40 with SARS-CoV-2 [4] (24 h, Drug 1); 33 and 76 and 10 and 20 and 30 and 36 in the series with SARS-CoV-2 [4] (24 h, Drug 10); 17 and 66 and 24 and 12 and 9 and 25 in the series on SARS-CoV-2 [4] (MOI 0.1, 24 h, Drug 0.1). The “TNF-α levels in the culture supernatant (Fig1D source data, per donor)” value in the series on TNF-α was 1.6 and 1.8 and 0.638 and 4.1 and 2.6. Further, in the series on IL-6, the “IL-6 levels in the culture supernatant (Fig1E source data, per donor)” value was 2.2 and 1.8 and 0.121 and 4.3 and 3.4 and 0.355 and 1.5 and 2.9. Besides, in the series on SARS-CoV-2 [5], the “Genomic viral RNA (Fig2B source data, replicates)” value was 0.3 and 0.1 and 0.22. Moreover, the “Subgenomic viral RNA (Fig2B source data, replicates)” value in the series with SARS-CoV-2 [5] was 0.5 and 0.45 and 0.56. The “Virus productive titers (Fig3A source data, replicates)” value in the series on SARS-CoV-2 [2] (setting [7]) is 32000 and 36000 and 38000. In addition, the “Virus productive titers (Fig3B source data, replicates)” value in the series on SARS-CoV-2 [2] (setting [7]) was 32000 and 36000 and 38000. The CC50 in the series on Calu-3 cells was found to be 530 ± 65 µM; in the series “in vitro”, 550 ± 32 µM. For the same compound, the EC50 in the series on SARS-CoV-2 [6] (setting [8]) was 0.18 ± 0.02 µM; with SARS-CoV-2 [6] (setting [9]) it was 0.02 ± 0.003 µM. For the same compound, the “Inhibition of SARS-CoV-2 infectious titers (Fig1B source data, replicates)” value was 18 and 20 and 16 with SARS-CoV-2 [6] (Drug 0.001, Calu-3, 48 h); 39 and 40 and 54 in the series with SARS-CoV-2 [6] (Drug 0.01); 62 and 60 and 58 in the series with SARS-CoV-2 [6] (Drug 0.1); 81 and 86 and 58 in the series with SARS-CoV-2 [6] (Drug 1); 98 (2×) and 99 in the series on SARS-CoV-2 [6] (Drug 10). The “Inhibition of SARS-CoV-2 infectious titers (Fig1A source data, replicates)” value in the series on SARS-CoV-2 [6] (setting [10]) is 2 and 4 and 5; in the series on SARS-CoV-2 [6] (Drug 0.01), 27 and 20 and 32; in the series on SARS-CoV-2 [6] (Drug 0.1) it was 40 and 53 and 50; in the series on SARS-CoV-2 [6] (Drug 1), 63 and 67 and 57; with SARS-CoV-2 [6] (Drug 10), 95 and 94 and 72.
Turning to `CC(C)C(=O)OC[C@H]1O[C@@H](n2ccc(NO)nc2=O)[C@H](O)[C@@H]1O` [MK-4482, molnupiravir, reference compound], the “Cell-associated virus RNA levels in SARS-CoV-2-infected monocytes” value in the series with SARS-CoV-2 [4] was “relatively low activity”. The “Cell-associated virus RNA loads, inhibition (Fig1C source data, per donor)” value is 25 (2×) and 23 in the series with SARS-CoV-2 [4] (24 h, Drug 1); 1 in the series on SARS-CoV-2 [4] (24 h, Drug 10); 12 (2×) and 18 with SARS-CoV-2 [4] (MOI 0.1, 24 h, Drug 0.1). For the same compound, in the series on Human primary monocytes, the Monocyte viability result is “drastically reduced”. Further, the EC99 mean in the series with SARS-CoV-2 [2] (Calu-3 cells, alone or with nsp14 inhibitor at the concentration of the label, unit not given) is 9. In addition, the EC50 with SARS-CoV-2 [2] amounted to 0.8 µM; in the series on SARS-CoV-2 [6] (setting [8]) it was 0.72 ± 0.12 µM; with SARS-CoV-2 [6] (setting [9]), 0.02 ± 0.008 µM. Further, the EC90 with SARS-CoV-2 [2] (Severe acute respiratory syndrome coronavirus 2, Calu-3, read-out: EC90 mean) was determined as 7 µM. In addition, the CC50 in the series on Calu-3 cells was 53 ± 12 µM; in “in vitro”, 58 ± 18 µM. Moreover, the “Inhibition of SARS-CoV-2 infectious titers (Fig1A source data, replicates)” value is 3 and 4 and 5 in the series with SARS-CoV-2 [6] (setting [10]); 13 and 6 and 16 with SARS-CoV-2 [6] (Drug 0.01); 48 and 30 and 35 in the series on SARS-CoV-2 [6] (Drug 0.1); 71 and 60 and 50 with SARS-CoV-2 [6] (Drug 1); 100 and 99 and 95 in the series on SARS-CoV-2 [6] (Drug 10).

The values are drawn from article PMC9837764 (Nature Communications, 2023).
